Reference: patent US8288424B2, “Substituted tetrahydroimidazopyridine compounds and the use thereof in the treatment of pain and other conditions” (Gruenenthal GmbH, priority 2008, dated 2012)

Each compound was assayed against T1, KCNQ2/3 channels (Homo sapiens, UniProt O43525+O43526) (assay: Fluorescence assay using a voltage-sensitive dye). Details: 10 μmol test substance; CHO-K1 cells expressing KCNQ2/3 channels; agonistic activity; read-out: % Stimulation [10 μmol] Average.
T1 construct: expressed in transfected cells; host or cells: CHO-K1
Type: cell-based
Description: Fluorescence Assay Using a Voltage-Sensitive Dye
Human CHO-K1 cells expressing KCNQ2/3 channels are cultivated adherently at 37° C., 5% CO2 and 95% humidity in cell culture bottles (e.g. 80 cm^2 TC flasks, Nunc) with MEM Alpha Medium (1×, liquid, Invitrogen, #22571), 10% foetal calf serum (FCS) (Invitrogen, #10270-106, heat-inactivated) and the necessary selection antibiotics. Before being spread out for the measurements, the cells are washed with a 1×DPBS buffer without Ca^2+/Mg^2+ (e.g. Invitrogen, #14190-094) and detached from the bottom of the culture vessel by means of Accutase (PAA Laboratories, #L11-007) (incubation with Accutase for 15 min at 37° C.). The cell count then present is determined using a CASY™ cell counter (TCC model, Schärfe System) in order subsequently to apply 20,000 cells/well/100 μl of the described nutrient medium to 96-well measuring plates of the Corning™ CellBIND™ type (flat clear-bottom black polystyrene microplates, #3340). Incubation is then carried out for one hour at room temperature, without gassing or adjusting the humidity, followed by incubation for 24 hours at 37° C., 5% CO2 and 95% humidity.
The voltage-sensitive fluorescent dye from the Membrane Potential Assay Kit (Red bulk format part R8123 for FLIPR, Molecular Devices™) is prepared by dissolving the contents of a vessel of Membrane Potential Assay Kit Red Component A in 200 ml of extracellular buffer (ES buffer, 120 mM NaCl, 1 mM KCl, 10 mM HEPES, 2 mM CaCl2, 2 mM MgCl2, 10 mM glucose; pH 7.4). After removal of the nutrient medium, the cells are washed with 200 μl of ES buffer, then covered with a layer of 100 μl of the dye solution prepared above and incubated for 45 min at room temperature with exclusion of light.
The fluorescence measurements are carried out with a BMG Labtech FLUOstar™ or BMG Labtech POLARstar™ instrument (525 nm excitation, 560 nm emission, bottom-read mode). After incubation of the dye, 50 μl of the substances to be tested in the desired concentrations, or 50 μl of ES buffer for control purposes, are introduced into separate cavities of the measuring plate and incubated for 30 min at room temperature whilst being shielded from light. The fluorescence intensity of the dye is then measured for 5 min and the fluorescence value F1 of each well is thus determined at a given, constant time. 15 μl of a […] KCl solution ([…]) are then added to each well. The change in fluorescence is subsequently measured until all relevant measured values have been obtained (mainly 5-30 min). At a given time after KCl application, a fluorescence value F2 is determined, in this case at the time of the fluorescence peak.
For calculation, the fluorescence intensity F2 is compared with the fluorescence intensity F1, and the agonistic activity of the target compound on the potassium channel is determined therefrom. F2 and F1 are calculated as follows:
[formula] In order to determine whether a substance has an agonistic activity,
[formula] for example, can be compared with
[formula] of control cells.
[formula] is determined by adding to the reaction batch only the buffer solution instead of the substance to be tested, determining the value F1K of the fluorescence intensity, adding the potassium ions as described above and measuring a value F2K of the fluorescence intensity. Then F2K and F1K are calculated as follows:
[formula] A substance has an agonistic activity on the potassium channel when
[formula] is greater than
[formula] Independently of the comparison of
[formula] it is also possible to conclude that a target compound has an agonistic activity if an increase in
[formula] is to be observed as the dosage of the target compound increases. Calculations of EC50 and IC50 values are carried out with the aid of Prism 4 software (GraphPad Software™).

Going from `COc1ccc(F)cc1C1CCc2nc(C(=O)N3CCN(c4cccc(C(F)(F)F)c4)CC3)cn2C1` (stereo not shown) [Compound 7, (6-(5-Fluoro-2-methoxyphenyl)-5,6,7,8-tetrahydroimidazo[1,2-a]pyridin-2-yl)(4-(3-(trifluoromethyl)phenyl)piperazin-1-yl)methanone] to `O=C(c1cn2c(n1)CCC(c1ccc(F)c(F)c1)C2)N1CCN(c2cccc(C(F)(F)F)c2)CC1` (stereo not shown) [Compound 79, (6-(3,4-Difluorophenyl)-5,6,7,8-tetrahydroimidazo[1,2-a]pyridin-2-yl)(4-(3-(trifluoromethyl)phenyl)piperazin-1-yl)methanone], the activation at 10 µM rises from 30% to 125%.

Going from `Cc1cc(C2CCc3nc(C(=O)N4CCC(c5cccc(C(F)(F)F)c5)CC4)cn3C2)ccc1F` (stereo not shown) [Compound 85, (6-(4-Fluoro-3-methylphenyl)-5,6,7,8-tetrahydroimidazo[1,2-a]pyridin-2-yl)(4-(3-(trifluoromethyl)phenyl)piperidin-1-yl)methanone] to `Cc1cc(C2CCc3nc(C(=O)N(C)C(C)CCc4cccc(C(F)(F)F)c4)cn3C2)ccc1F` (stereo not shown) [Compound 87, 6-(4-Fluoro-3-methylphenyl)-N-methyl-N-(4-(3-(trifluoromethyl)phenyl)butan-2-yl)-5,6,7,8-tetrahydroimidazo[1,2-a]pyridine-2-carboxamide], the activation at 10 µM falls from 120% to 48.4%.

Compared with `O=C(NC1CC1)c1cn2c(n1)CCC(c1ccc(Oc3ccccc3)cc1)C2` (stereo not shown) [Compound 26, N-Cyclopropyl-6-(4-phenoxyphenyl)-5,6,7,8-tetrahydroimidazo[1,2-a]pyridine-2-carboxamide], `COc1ccc(C2CCc3nc(C(=O)N4CCC(Cc5ccccc5)CC4)cn3C2)cc1` (stereo not shown) [Compound 76, (4-Benzylpiperidin-1-yl)(6-(4-methoxyphenyl)-5,6,7,8-tetrahydroimidazo[1,2-a]pyridin-2-yl)methanone] is higher in activation at 10 µM: 17.4% for the first, 65.1% for the second.

Compared with `O=C(NCc1ccccc1)c1cn2c(n1)CCC(c1cc(C(F)(F)F)cc(C(F)(F)F)c1)C2` (stereo not shown) [Compound 43, N-Benzyl-6-(3,5-bis(trifluoromethyl)phenyl)-5,6,7,8-tetrahydroimidazo[1,2-a]pyridine-2-carboxamide], `COc1c(C)cc(C2CCc3nc(C(=O)NCc4ccccc4)cn3C2)cc1C` (stereo not shown) [Compound 5, N-Benzyl-6-(4-methoxy-3,5-dimethylphenyl)-5,6,7,8-tetrahydroimidazo[1,2-a]pyridine-2-carboxamide] is lower in activation at 10 µM: 16.3% for the first, 15.5% for the second.

Going from `O=C(c1cn2c(n1)CCC(c1ccccc1)C2)N(CCc1ccccc1)Cc1ccccc1` (stereo not shown) [Compound 2, N-Benzyl-N-phenethyl-6-phenyl-5,6,7,8-tetrahydroimidazo[1,2-a]pyridine-2-carboxamide] to `CCc1ccc(C2CCc3nc(C(=O)NCCc4ccccc4)cn3C2)cc1` (stereo not shown) [Compound 40, 6-(4-Ethylphenyl)-N-phenethyl-5,6,7,8-tetrahydroimidazo[1,2-a]pyridine-2-carboxamide], the activation at 10 µM falls from 20% to 16.6%.

Going from `Cc1cc(C2CCc3nc(C(=O)NC(C)c4ccccc4)cn3C2)ccc1F` (stereo not shown) [Compound 14, 6-(4-Fluoro-3-methylphenyl)-N-(1-phenylethyl)-5,6,7,8-tetrahydroimidazo[1,2-a]pyridine-2-carboxamide] to `CC(CCc1ccccc1)NC(=O)c1cn2c(n1)CCC(c1cccc(F)c1)C2` (stereo not shown) [Compound 51, 6-(3-Fluorophenyl)-N-(4-phenylbutan-2-yl)-5,6,7,8-tetrahydroimidazo[1,2-a]pyridine-2-carboxamide], the activation at 10 µM falls from 24.7% to 16.2%.

First: O=C(c1cn2c(n1)CCC(c1ccc(F)cc1)C2)N1CCC(Cc2ccccc2)CC1 (stereo not shown) [Compound 41, (4-Benzylpiperidin-1-yl)(6-(4-fluorophenyl)-5,6,7,8-tetrahydroimidazo[1,2-a]pyridin-2-yl)methanone]
Second: O=C(c1cn2c(n1)CCC(c1ccccc1)C2)N1CCC(Cc2ccccc2)CC1 (stereo not shown) [Compound 1, (4-Benzylpiperidin-1-yl)(6-phenyl-5,6,7,8-tetrahydroimidazo[1,2-a]pyridin-2-yl)methanone]
The activation at 10 µM of the first is higher: 29.4% for the first, 16.2% for the second.

First: CCc1ccc(C2CCc3nc(C(=O)NC(C)CCc4ccccc4)cn3C2)cc1 (stereo not shown) [Compound 52, 6-(4-Ethylphenyl)-N-(4-phenylbutan-2-yl)-5,6,7,8-tetrahydroimidazo[1,2-a]pyridine-2-carboxamide]
Second: CC1(C)CC2CC(C)(CN2C(=O)c2cn3c(n2)CCC(c2ccc(F)cc2)C3)C1 (stereo not shown) [Compound 38, (6-(4-Fluorophenyl)-5,6,7,8-tetrahydroimidazo[1,2-a]pyridin-2-yl)(1,3,3-trimethyl-6-azabicyclo[3.2.1]octan-6-yl)methanone]
The activation at 10 µM of the first is higher: 34.2% for the first, 25.9% for the second.

Compared with `O=C(c1cn2c(n1)CCC(c1cc(C(F)(F)F)cc(C(F)(F)F)c1)C2)N1CCCC1` (stereo not shown) [Compound 30, (6-(3,5-Bis(trifluoromethyl)phenyl)-5,6,7,8-tetrahydroimidazo[1,2-a]pyridin-2-yl)(pyrrolidin-1-yl)methanone], `Cc1cc(C2CCc3nc(C(=O)NCC4CCCCC4)cn3C2)ccc1F` (stereo not shown) [Compound 68, N-(Cyclohexylmethyl)-6-(4-fluoro-3-methylphenyl)-5,6,7,8-tetrahydroimidazo[1,2-a]pyridine-2-carboxamide] is higher in activation at 10 µM: 20.9% for the first, 25.1% for the second.

Same assay, conditions: CHO-K1 cells expressing KCNQ2/3 channels; agonistic activity

`CCOc1ccccc1N1CCN(C(=O)c2cn3c(n2)CCC(c2cccc(C)c2)C3)CC1` (stereo not shown) [Compound 45, (4-(2-Ethoxyphenyl)piperazin-1-yl)(6-m-tolyl-5,6,7,8-tetrahydroimidazo[1,2-a]pyridin-2-yl)methanone] and `COc1c(C)cc(C2CCc3nc(C(=O)N4CCN(c5ccccc5F)CC4)cn3C2)cc1C` (stereo not shown) [Compound 6, (4-(2-Fluorophenyl)piperazin-1-yl)(6-(4-methoxy-3,5-dimethylphenyl)-5,6,7,8-tetrahydroimidazo[1,2-a]pyridin-2-yl)methanone] are within 1.5-fold of each other in EC50: 7.98 µM for the first, 7.4 µM for the second.

First: COc1ccc(C2CCc3nc(C(=O)N4CCN(c5cccc(C(F)(F)F)c5)CC4)cn3C2)c(OC)c1 (stereo not shown) [Compound 46, (6-(2,4-Dimethoxyphenyl)-5,6,7,8-tetrahydroimidazo[1,2-a]pyridin-2-yl)(4-(3-(trifluoromethyl)phenyl)piperazin-1-yl)methanone]
Second: Cc1cc(C2CCc3nc(C(=O)N4CCN(c5cccc(F)c5)CC4)cn3C2)ccc1F (stereo not shown) [Compound 83, (6-(4-Fluoro-3-methylphenyl)-5,6,7,8-tetrahydroimidazo[1,2-a]pyridin-2-yl)(4-(3-fluorophenyl)piperazin-1-yl)methanone]
The EC50 of the first is 1.6-fold lower: 3.98 µM for the first, 6.5 µM for the second. The first is the more potent here.

Compared with `CCCCCCNC(=O)c1cn2c(n1)CCC(c1cc(C)c(OC)c(C)c1)C2` (stereo not shown) [Compound 16, N-Hexyl-6-(4-methoxy-3,5-dimethylphenyl)-5,6,7,8-tetrahydroimidazo[1,2-a]pyridine-2-carboxamide], `COc1ccc(F)cc1C1CCc2nc(C(=O)N3CC4(C)CC3CC(C)(C)C4)cn2C1` (stereo not shown) [Compound 9, (6-(5-Fluoro-2-methoxyphenyl)-5,6,7,8-tetrahydroimidazo[1,2-a]pyridin-2-yl)(1,3,3-trimethyl-6-azabicyclo[3.2.1]octan-6-yl)methanone] is 3-fold higher in EC50: 3.95 µM for the first, 11.9 µM for the second.

With `Cc1cc(C2CCc3nc(C(=O)N4CCC(Cc5ccccc5)CC4)cn3C2)ccc1F` (stereo not shown) [Compound 57, (4-Benzylpiperidin-1-yl)(6-(4-fluoro-3-methylphenyl)-5,6,7,8-tetrahydroimidazo[1,2-a]pyridin-2-yl)methanone] the EC50 was 9.71 µM.
